Series [1] relates to scratching behaviors in FADS mice. Kind of series: Scratching behaviors in FADS mice upon single systemic administration of αvβ3 integrin inhibitors. The series is classed as in vivo, mouse (FADS, Nestin-cre/Ikk2ff). The note with it: for % Change from baseline in the number of scratchings (mean ± standard error): single, 60 minutes after administration vs before administration. The text has this: Nestin-cre transgenic mice were crossed with IKK2^ff mice to prepare Nestin-cre/Ikk2^ff mice specifically lacking IKK2 in their facial skin fibroblasts (Nunomura S, et al. J Invest Dermatol. 139:1274-1283, 2019). These mice inevitably develop atopic dermatitis-like rash limited to the face and intense itchy symptoms, and were therefore designated as Facial Atopic Dermatitis with Scratching (FADS) mice. […] For evaluation of the prophylactic or therapeutic agent of the present invention, FADS mice at 3 to 4 weeks of age or older were used because of showing spontaneous scratching behaviors. It should be noted that in this Example section, the above compound of formula (I) (more particularly “CP4715”) was used as the prophylactic or therapeutic agent of the present invention.
FADS mice were acclimated for 20 minutes to the environment of a recording cage, and then recorded with a video camera. The recorded videos were replayed, and scratching behaviors were counted assuming that hind paw scratching to the face and the subsequent movement of toe licking or paw lowering to the ground were regarded as one cycle of scratching behavior.
(§1) Prior to the administration of the above αvβ3 integrin inhibitors, FADS mice were recorded for 60 minutes with a video camera and then allowed to rest for 15 minutes. The compounds except for GLPG-0187 were each dissolved at 89.5 mM in a diluent (physiological saline containing 50% DMSO and 89.5 mM HCL), from which an amount corresponding to 53.7 μmol/kg per mouse was then taken and diluted with 0.3 mL of PBS, and then administered intraperitoneally. […] Mice administered with 0.3 mL of PBS containing an equal amount of the diluent as calculated based on the body weight were used as a control group.
The mice were recorded for 60 minutes with a video camera immediately after administration of the above αvβ3 integrin inhibitors. The number of scratchings before administration was used as a baseline, and % change from the baseline after administration was calculated for each compound. For statistical analysis, paired t-test was used. A P-value of less than 0.05 was considered to be statistically significant. The effect of an inhibitor whose mean change from the baseline was −65% or more at a P-value of less than 0.01 was expressed as “++”; the effect of an inhibitor whose mean change from the baseline was −60% or less at a P-value of less than 0.05 was expressed as “+”; and the effect of an inhibitor whose mean change from the baseline was −60% or less at a P-value of 0.05 or higher was expressed as “−.”

In series [2] the target is T1, integrin αvβ3 (Homo sapiens, UniProt P05106+P06756).
T1 construct: SW480 cells, a human colon cancer cell line not expressing integrin β3; expressed in transfected cells; host or cells: SW480 cells (human colon cancer) stably expressing human integrin β3
T1 sequence (P06756 31-889 limits assumed): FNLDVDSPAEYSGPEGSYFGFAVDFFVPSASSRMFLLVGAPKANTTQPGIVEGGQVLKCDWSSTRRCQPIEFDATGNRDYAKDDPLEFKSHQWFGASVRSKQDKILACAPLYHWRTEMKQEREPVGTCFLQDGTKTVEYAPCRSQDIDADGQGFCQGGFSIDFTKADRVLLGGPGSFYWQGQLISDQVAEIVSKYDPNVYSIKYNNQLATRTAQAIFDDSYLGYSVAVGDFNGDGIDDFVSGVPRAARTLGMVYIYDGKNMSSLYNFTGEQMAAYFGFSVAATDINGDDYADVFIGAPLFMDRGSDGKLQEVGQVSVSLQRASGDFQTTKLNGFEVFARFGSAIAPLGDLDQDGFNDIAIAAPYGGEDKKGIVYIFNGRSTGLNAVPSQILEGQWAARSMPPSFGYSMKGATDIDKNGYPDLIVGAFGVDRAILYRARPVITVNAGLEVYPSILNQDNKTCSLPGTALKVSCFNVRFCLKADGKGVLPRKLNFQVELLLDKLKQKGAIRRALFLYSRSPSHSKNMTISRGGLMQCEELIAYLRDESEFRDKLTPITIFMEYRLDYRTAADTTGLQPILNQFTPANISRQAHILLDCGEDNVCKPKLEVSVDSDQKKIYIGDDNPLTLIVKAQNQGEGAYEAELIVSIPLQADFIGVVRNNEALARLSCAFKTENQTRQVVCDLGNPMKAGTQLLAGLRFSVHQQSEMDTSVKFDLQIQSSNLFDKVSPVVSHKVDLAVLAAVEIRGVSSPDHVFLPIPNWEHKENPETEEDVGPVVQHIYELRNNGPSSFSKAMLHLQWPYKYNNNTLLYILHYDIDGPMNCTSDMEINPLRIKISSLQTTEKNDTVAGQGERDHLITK
T1 sequence (P06756 891-1048 partner limits assumed): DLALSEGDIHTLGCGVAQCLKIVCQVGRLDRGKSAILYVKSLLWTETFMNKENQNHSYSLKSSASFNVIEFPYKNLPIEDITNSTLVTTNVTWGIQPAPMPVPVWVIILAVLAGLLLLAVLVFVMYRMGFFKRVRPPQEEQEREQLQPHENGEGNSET
T1 sequence (P05106 27-788): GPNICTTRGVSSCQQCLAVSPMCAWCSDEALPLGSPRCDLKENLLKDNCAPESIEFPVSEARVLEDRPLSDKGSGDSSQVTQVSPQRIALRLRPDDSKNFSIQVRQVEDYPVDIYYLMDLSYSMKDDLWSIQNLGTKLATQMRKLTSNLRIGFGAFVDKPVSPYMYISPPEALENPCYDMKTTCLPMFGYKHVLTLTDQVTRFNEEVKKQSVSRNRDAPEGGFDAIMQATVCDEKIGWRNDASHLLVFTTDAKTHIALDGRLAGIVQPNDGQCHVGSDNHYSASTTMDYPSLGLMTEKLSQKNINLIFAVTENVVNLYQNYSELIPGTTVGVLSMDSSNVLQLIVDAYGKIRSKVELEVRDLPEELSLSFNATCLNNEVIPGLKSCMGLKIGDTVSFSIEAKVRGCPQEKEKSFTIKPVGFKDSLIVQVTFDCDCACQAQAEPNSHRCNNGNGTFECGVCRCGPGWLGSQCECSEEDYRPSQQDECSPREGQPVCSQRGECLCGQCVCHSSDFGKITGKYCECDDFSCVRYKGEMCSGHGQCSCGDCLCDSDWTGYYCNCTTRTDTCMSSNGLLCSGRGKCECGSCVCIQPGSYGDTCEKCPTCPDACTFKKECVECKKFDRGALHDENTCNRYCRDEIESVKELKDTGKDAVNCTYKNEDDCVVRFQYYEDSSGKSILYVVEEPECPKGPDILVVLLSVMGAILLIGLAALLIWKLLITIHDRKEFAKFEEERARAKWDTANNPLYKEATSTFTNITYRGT
Kind of series: Inhibition of periostin-dependent adhesion of SW480 cells expressing integrin αvβ3. The series is classed as cell-based. The note with it: immobilized recombinant human periostin, FIG. 6; for IC50: SW480 cells expressing human integrin β3, compounds at 0.001-1 μM, read-out: 50% inhibition concentration (IC50 value) for cell adhesion inhibitory activity; for cell adhesion inhibitory effect (in words): SW480 cells expressing integrin αvβ3. On the procedure: For use in cell adhesion experiments, SW480 cells, a human colon cancer cell line not expressing integrin β3, were genetically engineered to stably express human integrin β3 (Nanri Y, et al. Am J Respir Cell Mol Biol. 62:204-216, 2020). The compounds shown in Table 1 were examined for their inhibitory activity against adhesion between integrin αvβ3 and periostin according to the following procedures. First, a 96-well plate was treated with 10 μg/mL recombinant human periostin (Bio-Techne) at 4 °C for 16 hours to immobilize periostin. The SW480 cells expressing integrin αvβ3 (5×10^4 cells) were reacted at room temperature for 15 minutes with the above compounds at 0.001, 0.01, 0.1 and 1 μM in serum-free DMEM (Dulbecco's Modified Eagle Medium) containing 0.5% bovine serum albumin and 0.25 mM MnCl2. A group receiving no compound was used as a control. The reacted cell suspensions were added to separate wells of the above human periostin-immobilized plate, and the plate was centrifuged at 10×g for 5 minutes and then cultured at 37 °C for 60 minutes. Then, after the adhered cells were washed to remove unbound cells, the adhered cells were fixed with 1% formaldehyde and stained with 0.5% crystal violet. The fixed and stained cells were solubilized with 0.2% Triton X-100 and measured for absorbance at 595 nm. The absorbance of the control (i.e., the group receiving no compound) was set to 0% inhibition. […] Cell adhesion in this test system is periostin-dependent, and a compound inhibiting this cell adhesion can be referred to as a periostin receptor antagonist.

Series [3] is described as follows: Solubility in the diluent. The series is classed as physicochemical. Conditions: diluent: physiological saline containing 50% DMSO and 89.5 mM HCl. On the procedure:
as §1

For series [4], the system named is integrin αvβ3. Conditions: cited from earlier work.
Series [5] relates to integrin αvβ3. The note with it: Nanri Y, et al. 2020; cited from earlier work.
The next series has as its system scratching behaviors. Conditions: intracutaneous or subcutaneous administration; Non-patent Document 2; cited from earlier work.

We go through 3 molecules from patent US20260355192A1, “PROPHYLACTIC OR THERAPEUTIC AGENT FOR PERIOSTIN-MEDIATED DISEASE AND PRURITUS ASSOCIATED THEREWITH” (SAGA UNIVERSITY, priority 2022, published 2026).

In the case of `COc1ccc(S(=O)(=O)N[C@@H](CNc2nc(C)nc(N3CCC(c4ccc5c(n4)NCCC5)CC3)c2C)C(=O)O)cc1` [GLPG-0187, (S)-3-((2,5-dimethyl-6-(4-(5,6,7,8-tetrahydro-1,8-naphthyridin-2-yl)piperidin-1-yl)pyrimidin-4-yl)amino)-2-((4-methoxyphenyl)sulfonamido)propanoic acid], the “% Change from baseline in the number of scratchings (mean ± standard error)” value in series [1] (5.37 μmol/kg i.p.) was −38.9 ± 31.2%. Besides, on integrin αvβ3 [2], the IC50 is no more than 1 nM and the “cell adhesion inhibitory effect (in words)” value is reported as “high”. The solubility entry in series [3] is “low solubility”.
Take `O=C(NC[C@H](NS(=O)(=O)c1ccccc1)C(=O)O)c1ccc(N2CCC[C@H](NC3=NCCCN3)C2)cc1` [CP derivative 6, (S)-2-(Phenylsulfonamido)-3-(4-((S)-3-((1,4,5,6-tetrahydropyrimidin-2-yl)amino)piperidin-1-yl)benzamido)propanoic acid]: the “% Change from baseline in the number of scratchings (mean ± standard error)” value in series [1] (53.7 μmol/kg i.p.) is recorded as −77.8 ± 7.9%. Moreover, in series [1] (single i.p., 53.7 μmol/kg (GLPG-0187 5.37 μmol/kg), paired t-test), the “grade of effect on % change from the baseline in the number of scratchings” value is reported as “++ (mean change from the baseline was −65% or more at a P-value of less than 0.01)”. Also, on integrin αvβ3 [2], the IC50 was no more than 1 nM and the “cell adhesion inhibitory effect (in words)” value was “high”. In the series on integrin αvβ3 [4], the “inhibition of binding between integrin αvβ3 and vitronectin” value is given as “inhibit binding”. Further, the “inhibition of binding between integrin αvβ3 and periostin” value in the series with integrin αvβ3 [5] is given as “inhibit binding”.

B1: Periostin: extracellular matrix protein that binds to cell surface receptors belonging to the integrin family (protein, UniProt Q15063 22-836, looked up)
Periostin: NNHYDKILAHSRIRGRDQGPNVCALQQILGTKKKYFSTCKNWYKKSICGQKTTVLYECCPGYMRMEGMKGCPAVLPIDHVYGTLGIVGATTTQRYSDASKLREEIEGKGSFTYFAPSNEAWDNLDSDIRRGLESNVNVELLNALHSHMINKRMLTKDLKNGMIIPSMYNNLGLFINHYPNGVVTVNCARIIHGNQIATNGVVHVIDRVLTQIGTSIQDFIEAEDDLSSFRAAAITSDILEALGRDGHFTLFAPTNEAFEKLPRGVLERIMGDKVASEALMKYHILNTLQCSESIMGGAVFETLEGNTIEIGCDGDSITVNGIKMVNKKDIVTNNGVIHLIDQVLIPDSAKQVIELAGKQQTTFTDLVAQLGLASALRPDGEYTLLAPVNNAFSDDTLSMDQRLLKLILQNHILKVKVGLNELYNGQILETIGGKQLRVFVYRTAVCIENSCMEKGSKQGRNGAIHIFREIIKPAEKSLHEKLKQDKRFSTFLSLLEAADLKELLTQPGDWTLFVPTNDAFKGMTSEEKEILIRDKNALQNIILYHLTPGVFIGKGFEPGVTNILKTTQGSKIFLKEVNDTLLVNELKSKESDIMTTNGVIHVVDKLLYPADTPVGNDQLLEILNKLIKYIQIKFVRGSTFKEIPVTVYTTKIITKVVEPKIKVIEGSLQPIIKTEGPTLTKVKIEGEPEFRLIKEGETITEVIHGEPIIKKYTKIIDGVPVEITEKETREERIITGPEIKYTRISTGGGETEETLKKLLQEEVTKVTKFIEGGDGHLFEDEEIKRLLQGDTPVRKLQANKKVQGSRRRLREGRSQ
Regarding B1, in the series on scratching behaviors, the “induction of scratching behaviors” value is “induce scratching behaviors”.
